Test results from ChEMBL document CHEMBL1828521, “New azole antifungal agents with novel modes of action: synthesis and biological studies of new tridentate ligands based on pyrazole and triazole” (2011).
The source made the active and inactive calls. The rule behind the calls is not given here.

Columns and labels:
Saccharomyces cerevisiae [1] = assay: Antifungal activity against ski2-deficient Saccharomyces cerevisiae BY4741 at 0.85 to 1.14 mM after 3 days by serial dilution method; type: functional, organism-based
Saccharomyces cerevisiae [2] = assay: Induction of cell cycle arrest at G1-phase in Saccharomyces cerevisiae BY4741 assessed as accumulation of 1C DNA content at 1 mM after 180 mins by flow cytometric analysis; type: functional, organism-based
Saccharomyces cerevisiae [3] = assay: Antifungal activity against Saccharomyces cerevisiae BY4741 expressing Rad52-GFP assessed as increase in appearance of Rad52 foci in S-phase by epifluorescence microscopy; type: functional, organism-based
Saccharomyces cerevisiae [4] = assay: Antifungal activity against xrs2-deficient Saccharomyces cerevisiae BY4741 at 0.85 to 1.14 mM after 3 days by serial dilution method; type: functional, organism-based
Saccharomyces cerevisiae [5] = assay: Antifungal activity against Saccharomyces cerevisiae BY4741 expressing Rad52-GFP assessed as increase in appearance of Rad52 foci in G2/M phase by epifluorescence microscopy; type: functional, organism-based
Saccharomyces cerevisiae [6] = assay: Antifungal activity against Saccharomyces cerevisiae BY4741 assessed as reduction in cell growth at 1 mM; type: functional, organism-based
Saccharomyces cerevisiae [7] = assay: Induction of cell cycle arrest at G1-phase in Saccharomyces cerevisiae BY4741 at 1 mM after 180 mins by flow cytometric analysis; type: functional, organism-based
Saccharomyces cerevisiae [8] = assay: Antifungal activity against top3-deficient Saccharomyces cerevisiae BY4741 at 0.85 to 1.14 mM after 3 days by serial dilution method; type: functional, organism-based
Saccharomyces cerevisiae [9] = assay: Antifungal activity against wild-type Saccharomyces cerevisiae BY4741 at 1.14 mM after 3 days by serial dilution method; type: functional, organism-based
Saccharomyces cerevisiae [10] = assay: Antifungal activity against Saccharomyces cerevisiae BY4741 assessed as inhibition of replication at 1 mM; type: functional, organism-based
Saccharomyces cerevisiae [11] = assay: Antifungal activity against PKC1-deficient Saccharomyces cerevisiae BY4741 by Haploinsufficiency-profiling assay; type: functional, organism-based
Saccharomyces cerevisiae [12] = assay: Antifungal activity against Saccharomyces cerevisiae BY4741 expressing Rad52-GFP assessed as increase in appearance of Rad52 foci in G1 phase by epifluorescence microscopy; type: functional, organism-based
Saccharomyces cerevisiae [13] = assay: Antifungal activity against Saccharomyces cerevisiae BY4741 expressing Rad52-GFP assessed as appearance of Rad52 foci by epifluorescence microscopy; type: functional, organism-based
Saccharomyces cerevisiae [14] = assay: Antifungal activity against Saccharomyces cerevisiae BY4741 assessed as large budded cells at 1 mM (reference value: 39.4%); type: functional
Saccharomyces cerevisiae [15] = assay: Antifungal activity against xrs2-deficient Saccharomyces cerevisiae BY4741 at 1 to 1.4 mM after 3 days by serial dilution method; type: functional, organism-based
Saccharomyces cerevisiae [16] = assay: Antifungal activity against Saccharomyces cerevisiae BY4741 assessed as small budded cells at 1 mM (reference value: 22%); type: functional
Saccharomyces cerevisiae [17] = assay: Antifungal activity against Saccharomyces cerevisiae BY4741 assessed as increase in unbudded cells at 1 mM (reference value: 38.5%); type: functional
Saccharomyces cerevisiae [18] = assay: Antifungal activity against ski2-deficient Saccharomyces cerevisiae BY4741 at 1 to 1.4 mM after 3 days by serial dilution method; type: functional, organism-based
Saccharomyces cerevisiae [19] = assay: Antifungal activity against wild-type Saccharomyces cerevisiae BY4741 at 1.4 mM by serial dilution method; type: functional, organism-based
Saccharomyces cerevisiae [20] = assay: Antifungal activity against top3-deficient Saccharomyces cerevisiae BY4741 at 1 to 1.4 mM after 3 days by serial dilution method; type: functional, organism-based
Saccharomyces cerevisiae [21] = assay: Cell cycle arrest in Saccharomyces cerevisiae BY4741 assessed as accumulation of cells with […] DNA content at G1 phase at 290 uM for 8 hrs by flow cytometric analysis; type: functional, organism-based
Saccharomyces cerevisiae [22] = assay: Cell cycle arrest at G1-phase in Saccharomyces cerevisiae BY4741 assessed as accumulation of […] DNA content at 290 uM after 180 mins by flow cytometric analysis; type: functional, organism-based

`CCN(CC)CCCN(Cn1cncn1)Cn1cncn1` was tested, and the Activity (Saccharomyces cerevisiae [1]) was “Active”, the Activity (Saccharomyces cerevisiae [2]) was “Active” and the Activity (Saccharomyces cerevisiae [3]) was “Active”. The Activity (Saccharomyces cerevisiae [4]) was “Active”, the Activity (Saccharomyces cerevisiae [5]) was “Active” and the Activity (Saccharomyces cerevisiae [6]) was “Active”. The Activity (Saccharomyces cerevisiae [7]) was “Active”, the Activity (Saccharomyces cerevisiae [8]) was “Active” and the Activity (Saccharomyces cerevisiae [9]) was “inactive”. The Activity (Saccharomyces cerevisiae [10]) was “Active”, the Activity (Saccharomyces cerevisiae [11]) was “Active” and the Activity (Saccharomyces cerevisiae [12]) was “Active”. For the same compound, the Activity (Saccharomyces cerevisiae [13]) was “Active”.

In the case of `Cc1cc(C)[nH]n1`, the Activity (Saccharomyces cerevisiae [6]) is reported as “inactive”.

For `CCN(CC)CCCN(Cn1nc(C)cc1C)Cn1nc(C)cc1C`, the Activity (Saccharomyces cerevisiae [3]) was “Active”, the Activity (Saccharomyces cerevisiae [14]) was 38.7% and the Activity (Saccharomyces cerevisiae [15]) was “Active”. For the same compound, the Activity (Saccharomyces cerevisiae [5]) was “Active”, the Activity (Saccharomyces cerevisiae [16]) was 9.7% and the Activity (Saccharomyces cerevisiae [17]) was 51.5%. For the same compound, the Activity (Saccharomyces cerevisiae [6]) was “Active”, the Activity (Saccharomyces cerevisiae [18]) was “Active” and the Activity (Saccharomyces cerevisiae [19]) was “inactive”. For the same compound, the Activity (Saccharomyces cerevisiae [20]) was “Active”, the Activity (Saccharomyces cerevisiae [21]) was “Active” and the Activity (Saccharomyces cerevisiae [22]) was “Active”. The Activity (Saccharomyces cerevisiae [12]) was “Active” and the Activity (Saccharomyces cerevisiae [13]) was “Active”.

With `Cc1cc(C)n(CO)n1` the Activity (Saccharomyces cerevisiae [6]) was “Active”.
